How the values were obtained:
GPR55 [1] = biological target: T1, GPR55 (Homo sapiens, UniProt Q9Y2T6); assay: VirD oscillator method, Tocrifluor/GPR55 pair in diluted buffer; type: binding
Excerpt: To study the impact of buffer ionic strength on the binding kinetics, the binding results in 1×PBS were compared with results measured in a more diluted buffer solution (40 times diluted 1×PBS) for the same experiments performed with ADRB2-B2 antagonist pair. The solid lines in FIG. 7 show the global fitting of the data with first-order kinetic model. […] Both of the GPCR binding pairs measured involve electrostatic interactions, since the reported binding site of GPR55 is hydrophilic, and ADRB2 is partially hydrophilic. Thus, the affinity measured under normal and diluted PBS are different. […] Due at least in part to the strong ionic screening effect in normal ionic strength buffer, the signal intensity is reduced to about half of the measurement in low ionic strength buffer while the noise remains at a similar level.
Target sequence in this assay (Q9Y2T6 whole entry, species assumed): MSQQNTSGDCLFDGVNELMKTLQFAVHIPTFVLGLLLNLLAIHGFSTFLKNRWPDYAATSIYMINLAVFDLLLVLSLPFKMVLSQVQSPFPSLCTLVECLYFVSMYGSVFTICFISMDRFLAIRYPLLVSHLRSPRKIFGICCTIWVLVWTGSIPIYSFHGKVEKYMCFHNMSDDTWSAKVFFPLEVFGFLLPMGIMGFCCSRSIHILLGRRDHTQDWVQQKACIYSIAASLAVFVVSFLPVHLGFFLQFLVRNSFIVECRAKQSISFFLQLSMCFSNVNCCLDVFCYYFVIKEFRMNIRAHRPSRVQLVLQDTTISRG

[2] = system: empty virion K082 (no GPCR displayed); assay: CSOD negative control with empty virion K082 modified fiber; type: binding, HSV-1
Excerpt: Virions are functionalized to fiber surface via epoxy coupling, and the binding of respective small molecule antagonists B2 antagonist and Tocrifluor are studied in 1×PBS. First, the virions modified fiber tip was dipped into one well filled with 1×PBS buffer to establish a baseline. Subsequently, the fiber tip was switched from the buffer well to a sample well containing ligands to measure the binding or association process. At last, the fiber tip was switched back to the buffer well for dissociation studies. […] Solid lines are global fitting of the data with a first-order kinetic model. […] For both binding pairs, when no ligand is introduced, the baseline level is within the noise level, showing that the oscillation amplitude change was caused by the specific binding between the ligands and their corresponding receptors.

GPR55 [3] = biological target: T1, GPR55; assay: CSOD binding kinetics of a small molecule ligand to virion-displayed GPR55; set-up: made in house; host or cells: recombinant HSV-1 virions (VirD), made by collaborators at Johns Hopkins University; settings: 1×PBS, global fitting with first-order kinetics
Excerpt: An inverted microscope (Olympus IX-70 with 40× objective) with a CCD camera (Pike F-032, Allied Vision) was used for recording 14-bit grayscale image sequences at a frame rate of 106.5. A customized plate with 2 PDMS wells shown in FIGS. 1A and 1B was mounted on a motorized microscope stage (MAC 6000 modular automation controller, Ludl Electronic Products LTD.). Two steel electrodes (1 cm×3 cm) were placed 1 cm apart inside the well, then blocked with agarose electrophoresis gel. A green LED (505 nm, 400 mW, Thorlabs M505L3) light was coupled into the fiber via a focusing lens. Fiber is dipped into analyte solution between the electrophoresis gels. To control the fiber and move the fiber between the 2 wells, the fiber was clamped to a motorized arm (A-LSQ075B, Zaber). A sinusoidal potential was applied with a function generator (33521A, Agilent). A USB data acquisition card (USB-6229, National Instruments) was used to record voltage and current.
The tip (about 1 cm) of an optical fiber thread (about 20 cm) was first soaked in acetone for 1 minute and then rinsed with DI water and dried. The polymer coating layer on the optical fiber was then stripped off with an optical fiber stripper. The bare fiber was etched by soaking it in 47% hydrofluoric acid for 29 minutes and 15 seconds for a diameter of approximately 15 μm. The etched fiber was later rinsed with DI water to wash off the hydrofluoric acid and then blown dry with nitrogen. The tip was cut to about 9 mm long. Before functionalization, the optical fiber was cleaned with oxygen plasma for 3 minutes.
The etched fiber was soaked in (3-glycidyloxypropyl)trimethoxysilane (epoxy) solution (2.5% volume percentage of epoxy in isopropanol) for 1 hour for surface functionalization. The fiber was then rinsed with PBS buffer. […]
By fitting the kinetic curves at different concentrations globally with first-order kinetics, the association rate constant (ka), dissociation rate constant (kd) as well as equilibrium constant (KD) for both binding pairs are calculated.
Target sequence in this assay (Q9Y2T6 whole entry): as the sequence (Q9Y2T6 whole entry, species assumed) above

Tocrifluor
Kd (GPR55 [1]): 0.16 ± 0.05 µM | binding to empty virion K082 [2]: binds to neither | association rate constant ka (GPR55 [3]): 9200 M⁻¹ s⁻¹ | dissociation rate constant kd (GPR55 [3]): 0.00081 s⁻¹ | Kd (GPR55 [3]; read-out: equilibrium constant KD): 0.089 µM

Source: patent US12535460B2, “Small molecule detection in normal ionic strength buffers” (ARIZONA BOARD OF REGENTS ON BEHALF OF ARIZONA STATE …, priority 2020, dated 2026)
